US11517575B2, “Use of minaprine to reduce tumor growth” (Institut Gustave-Roussy, priority 2019, dated 2022)

Legend:
[1] = test system: HCT116 cells; assay: Screening of chemical libraries for IR-mediated cellular cannibalism (imaging flow cytometry, confocal validation); type: cell-based, human; conditions: 8 Gy irradiated HCT116 cells, 10 μM compound, 24 h culture
Experimental: FIG. 4 Identification of cannibalism modulators triggered by ionizing radiation. Compounds from the Prestwick (A) and CEA (F) libraries were tested for their capacities to induce cellular cannibalism after ionizing radiation. Cannibal cells were detected after homotypic cultures of 8 gray γ-irradiation HCT116 cells in the presence or absence of 10 μM of the Prestwick (A) and CEA […] library compounds. Each dot represents one compound. Representative images are shown in (B, G). (C, H) HCT116 cells were treated with the indicated drugs. After 24 h of treatment, cell death was monitored by staining with 3,3 dihexyloxacarbocyanine iodide (DiOC6(3)) and PI^+, and the percentage of dying (DiOC6(3)^low PI^−, open bars) and dead (DiOC6(3)^low PI^+, closed bars) cells was determined by cytofluorometry. Validation of the cannibalism inducers by fluorescent microscopy. Representative images (D, I) and quantification (E, J) are shown. Results are means s.e.m. of triplicate determinations.
Untreated HCT116 cells were labeled with CMFDA (green fluorescence, CMFDA^+) or CMTMR, (red fluorescence, CMTMR) and treated HCT116 cells with CMFDA (green fluorescence, CMFDA^+). The following cell mixtures were performed: untreated CMTMR^+ HCT116 cells were mixed with untreated CMFDA^+ HCT116 cells, or untreated CMTMR^+ HCT116 cells were mixed with treated CMFDA^+ HCT116 cells. Then, cells were co-cultured during 24 hours in the presence or absence of the pharmacological inhibitor of ROCK, Y27632 (30 μM), the pan-caspase inhibitor, Z-VAD-fmk (ZVAD, 100 μM), the inhibitor of caspase-1, Ac-YVAD-cmk (YVAD, 100 μM), the necroptosis inhibitor, Necrostatin-1 (NEC1, 30 μM), the inhibitor of the vacuolar type H(+)-ATPase (V-ATPase) inhibiting autophagy, Bafilomycin A1 (BafA1, 50 nM), the inhibitor of Cdks with an anti-mitotic activity, Roscovitine (Rosco, 10 μM). After 24 hours of co-culture, both detached and adherent cells were collected and stained with Hoechst […] (10 μg/mL) during 1 hour at 37° C. in warmed complete medium. To detect phosphatidylserine (PS) exposure and plasma membrane permeability, labeled HCT116 cells were successively incubated with Biotin-AnnexinV (BD Pharmingen) as recommended by manufacturer, […] BV786-Streptavidin (BD Biosciences) and 3 μM DRAQ7 (BioStatus) during 15 minutes at 25° C. After washing with PBS solution, samples were immediately analyzed using an imaging flow cytometer FlowSight® (Amnis®, part of EMD Millipore). Data were acquired at a 20× magnification, using INSPIRE software. The 405 nm, 488 nm, and 561 nm lasers were used for excitation. Brightfield, Annexin V-BV786, DRAQ7, CMFDA, CMTMR and Hoechst […] stainings were detected using respectively channels for 420-480 nm, 745-800 nm, 642-745 nm, 480-560 nm, 595-642 nm and 430-505 nm. At least 1000 events of cells per sample were analyzed. Additional single-labeled controls were prepared to normalize fluorescent signal across different channels. Acquired data were analyzed using the IDEAS analysis software (v6.1; Merck-Millipore). Gating strategy was the following. Cells were gated for focused cells using the Gradient RMS feature. Cells were gated for single cells using the aspect ratio and area features. For the cannibalism detection, cells were gated in the double positive CMFDA^+ and CMTMR^+ staining.
To detect PS exposure, plasma membrane permeability and cell cycle progression, cells were after co-culture sequentially labeled with specific fluorescent probes (such as FITC-conjugated AnnexinV, propidium iodide, and Hoechst 33342) and analyzed by flow cytometry. Both detached and adherent cells were collected and stained with Hoechst […] (10 μg/ml) during 1 hour at 37° C. in warmed complete medium. After washing with PBS, HCT116 cells were suspended in 1× binding buffer supplemented with fluorescein isothiocyanate (FITC)-conjugated Annexin V (BD Biosciences) and propidium iodide (PI, 1 μg/mL) (Sigma), as per manufacturer's instructions. […]

[2] = test system: CT26 cells; assay: Anti-tumor vaccination assay, CT26 cells in BALB/c mice; type: in vivo, mouse; conditions: for frequency of mice showing a protective response: 8 Gy + 10 μM compound 24 h
Experimental: FIG. 5. Identification of cannibalism modulators as immunogenic cell death inducers. MCA205 (A) or CT26 (E, I, M, Q) cells were treated with the indicated drugs. After 24 h of coculture with the indicated treatment, cell death was monitored by staining DiOC6(3) and PI, and the percentage of dying (DiOC6(3)^low PI^−, open bars) and dead (DiOC6(3)^low PI^+, closed bars) cells was determined by cytofluorometry. (B-D) MCA205 cells or (F-H, J-L, N-P, R-T) CT26 cells cocultured after x irradiation with the indicated compounds were inoculated subcutaneously into the right flank of […] or BALB/c mice, respectively. Seven days later, the mice were rechallenged with live cells injected into the opposite flank, and tumor growth was monitored (five mice per group).
FIG. 6. Tumor vaccination experiments. CT26 cells were treated for 24 hours with 10 μM VP331 (A, F, K), 10 μM Minaprine (B, G, L), 10 μM Lopa87 (C, H, M), 10 μM SG6163F (D, I, N), 10 μM Azaguanine-8 (8-aza) (E, J, O) alone or combined with 8 Gy ionizing radiation and inoculated (s.c.) into immunocompetent BALB/c mice, which were rechallenged at the opposite flank 7 days later with the same cancer cells. The percentage of tumor-free mice was evaluated three times a week for the following 38 days. Percentage of total tumor free mice (A-E), tumor free-mice at the first injection site (F to J, P) or at the second injection site (K to O, Q) are shown. (*P<0.05, **P<0.01, ***P<0.001, two-way ANOVA).
The combination of IRCCE with IR induces efficient antitumor immunity. Considering that immunogenic cell death (ICD) inducers were identified (such as Digoxin, Digitoxin, Lanatoside C or Doxorubicin hydrochloride)^3, 4, 48-51) as IRCCE, the ability of these compounds to induce an antitumor immunity after radiotherapy was evaluated. First, a preclinical approaches was developed to study the immunological effects of IRCCE on two mouse models of carcinoma (colon CT26 carcinoma and fibrosarcoma MCA205). Initially, the ability of the combination of IRCCE+IR to trigger a specific anti-tumor immune response was appreciated using immunocompetent mice through anti-tumor vaccination assays. According to previously published studies^52, the injection of cancer cells succumbing to an immunogenic cell death (ICD) into immunocompetent mice must elicit a protective immune response that is specific for tumor antigens. Thus, 3×10^5 MCA205 cells were first treated with 10 μM of SG6163F for 24 hours. Then, treated cells were inoculated subcutaneously in 200 μl PBS into the lower flank of 8-week-old female C57BL/6 mice. One week later, 3×10^4 untreated control cells were inoculated into the contralateral flank of mice. Tumors were evaluated weekly using a common caliper. Animals bearing tumors that exceeded 20-25% body mass were euthanatized. […] Then, 3×10^6 CT26 cells were irradiated with 8 Gy in presence of 10 μM of SG6163F (FIGS. 5E and 5F), VP331 (FIGS. 5I and 5J), Minaprine dihydrochloride (FIGS. 5M and 5N) or LOPA87 (FIGS. 5Q and 5R) for 24 hours. Then, cells were inoculated as previously described subcutaneously in […] into the lower flank of 8-week-old female BALB/c mice. One week later, 5×10^5 untreated control cells were inoculated into the contralateral flank of mice and tumors were evaluated weekly using a common caliper. As previously mentioned, animals bearing tumors that exceeded 20-25% body mass were euthanatized. The percentage of dying cells in each condition was evaluated by determining with DiOC(6)3/IP staining (FIGS. 5E, 5I, 5M and 5Q). Finally, the ability of these compounds to repress the growth of cancer cells that have been injected 7 days after injection of irradiated and treated cancer cells was appreciated.
A second anti-tumor vaccination assay was done on CT26 mouse models of carcinoma as previously described. […]

[3] = second assay: CT26 cells, rechallenge 7 days later
[4] = first assay: CT26 cells, rechallenge one week later

Compound	enhancement of IR-mediated cellular cannibalism [1]	protective response after injection of cancer cells ([2]; second assay: CT26 cells treated with 10 μM compound alone (no IR))	frequency of mice showing a protective response [2, 3]	frequency of mice showing a protective response [2, 4]
Nc1nc2[nH]nnc2c(=O)[nH]1 [Azaguanine-8]	efficient cellular cannibalism enhancer	induce an increase of protective response	Significant increases in the frequency of mice showing a protective response	–
C[C@H]1O[C@@H](O[C@H]2[C@@H](O)C[C@H](O[C@H]3[C@@H](O)C[C@H](O[C@H]4CC[C@@]5(C)[C@H](CC[C@@H]6[C@@H]5CC[C@]5(C)[C@@H](C7=CC(=O)OC7)CC[C@]65O)C4)O[C@@H]3C)O[C@@H]2C)C[C@H](O)[C@@H]1O [Digitoxin]	efficient cellular cannibalism enhancer	–	–	–
C[C@H]1O[C@@H](O[C@H]2[C@@H](O)C[C@H](O[C@H]3[C@@H](O)C[C@H](O[C@H]4CC[C@@]5(C)[C@H](CC[C@@H]6[C@@H]5C[C@@H](O)[C@]5(C)[C@@H](C7=CC(=O)OC7)CC[C@]65O)C4)O[C@@H]3C)O[C@@H]2C)C[C@H](O)[C@@H]1O [Digoxin]	efficient cellular cannibalism enhancer	–	–	–
COc1cccc2c1C(=O)c1c(O)c3c(c(O)c1C2=O)C[C@@](O)(C(=O)CO)C[C@@H]3O[C@H]1C[C@H](N)[C@H](O)[C@H](C)O1.Cl [Doxorubicin hydrochloride]	efficient cellular cannibalism enhancer	–	–	–
CC(C(=O)O)c1ccc(-c2ccccc2)c(F)c1 (stereo not shown) [Flurbiprofen]	efficient cellular cannibalism enhancer	–	–	–
CN(C)c1ccc(-c2cc(=O)[nH]c(-c3ccccc3)n2)cc1 [LOPA87]	efficient cellular cannibalism enhancer	–	Significant increases in the frequency of mice showing a protective response	significant increase in the frequency of mice showing a protective response
CC(=O)O[C@H]1C[C@H](O[C@H]2[C@@H](O)C[C@H](O[C@H]3[C@@H](O)C[C@H](O[C@H]4CC[C@@]5(C)[C@H](CC[C@@H]6[C@@H]5C[C@@H](O)[C@]5(C)[C@@H](C7=CC(=O)OC7)CC[C@]65O)C4)O[C@@H]3C)O[C@@H]2C)O[C@H](C)[C@H]1O[C@@H]1O[C@H](CO)[C@@H](O)[C@H](O)[C@H]1O [Lanatoside C]	efficient cellular cannibalism enhancer	–	–	–
CN1CCc2c(c3ccccc3n2Cc2ccccc2)C1 [Mebhydroline 1,5-naphtalene-disulfonate]	efficient cellular cannibalism enhancer	–	–	–
COc1cc(O)ccc1/C=N/c1ccccc1C(=O)Nc1ccccc1 [RN-1-026]	efficient cellular cannibalism enhancer	–	–	–
CN1c2ccccc2C(=O)N(c2ccccc2)C1c1ccc(-c2csc(CO)n2)s1 (stereo not shown) [VP43]	efficient cellular cannibalism enhancer	–	–	–
COc1ccc(C)cc1/C=N/[C@@H]1C[C@@H]2C[C@H]([C@H]1C)C2(C)C [VP331]	efficient cellular cannibalism enhancer	–	Significant increases in the frequency of mice showing a protective response	significant increase in the frequency of mice showing a protective response
O=C(N/N=C/c1ncc[nH]1)NC12CC3CC(CC(C3)C1)C2 [VP450]	efficient cellular cannibalism enhancer	–	–	–
Myricetin	efficient cellular cannibalism enhancer	–	–	–
